# Laboratory results taken from ChEMBL document CHEMBL4007424, “Design and Synthesis of Enantiomerically Pure Decahydroquinoxalines as Potent and Selective κ-Opioid Receptor Agonists with Anti-Inflammatory Activity in Vivo” (J Med Chem, 2017).
# Assays:
# [1] = system: Rattus norvegicus; assay: Toxicity in Wistar Han rat assessed as moderate tonic spasms at 5 mg/kg, iv after 0.25 hrs; assay type: organism-based; details: in vivo
# [2] = system: Rattus norvegicus; assay: Toxicity in Wistar Han rat assessed as severe cramped posture at 5 mg/kg, iv after 0.25 hrs; assay type: organism-based; details: in vivo
# [3] = system: Rattus norvegicus; assay: Toxicity in Wistar Han rat assessed as flat posture at 5 mg/kg, iv after 0.25 hrs; assay type: organism-based; details: in vivo
# [4] = system: Rattus norvegicus; assay: Toxicity in Wistar Han rat assessed as flat posture at 5 mg/kg, iv after 1 hr; assay type: organism-based; details: in vivo
# [5] = system: Rattus norvegicus; assay: Toxicity in Wistar Han rat assessed as severe lethargy at 5 mg/kg, iv after 1 hr; assay type: organism-based; details: in vivo
# [6] = system: Rattus norvegicus; assay: Toxicity in Wistar Han rat assessed as severe lethargy at 5 mg/kg, iv after 0.25 hrs; assay type: organism-based; details: in vivo
# [7] = Plasma concentration in Wistar Han rat at 5 mg/kg, iv measured 0.25 hrs post compound administration; assay type: ADME, organism-based
# [8] = Drug level in Wistar Han rat brain at 5 mg/kg, iv measured 1 hr post compound administration; assay type: ADME, organism-based; details: read-out: Drug uptake
# [9] = system: Rattus norvegicus; assay: Toxicity in Wistar Han rat assessed as moderate extension spasms of the tail at 5 mg/kg, iv after 1 hr; assay type: organism-based; details: in vivo
# [10] = system: Rattus norvegicus; assay: Toxicity in Wistar Han rat assessed as severe cramped posture at 5 mg/kg, iv after 1 hr; assay type: organism-based; details: in vivo
# [11] = system: Rattus norvegicus; assay: Toxicity in Wistar Han rat assessed as moderate tonic spasms at 5 mg/kg, iv after 1 hr; assay type: organism-based; details: in vivo
# [12] = system: Rattus norvegicus; assay: Toxicity in Wistar Han rat assessed as moderate extension spasms of the tail at 5 mg/kg, iv after 0.25 hrs; assay type: organism-based; details: in vivo
# [13] = Plasma concentration in Wistar Han rat at 5 mg/kg, iv measured 1 hr post compound administration; assay type: ADME, organism-based
# [14] = Ratio of drug level in brain to plasma in Wistar Han rat at 5 mg/kg, iv after 1 hr; assay type: ADME, organism-based; details: read-out: BPR
# [15] = system: Rattus norvegicus; assay: Toxicity in Wistar Han rat assessed as assessed as clinical signs changes at 5 mg/kg, iv after 1 hr; assay type: organism-based; details: in vivo
# [16] = system: Rattus norvegicus; assay: Toxicity in Wistar Han rat assessed as clinical signs changes at 1 mg/kg, iv after 1 hr; assay type: organism-based; details: in vivo
# [17] = Plasma concentration in Wistar Han rat at 1 mg/kg, iv measured 1 hr post compound administration; assay type: ADME, organism-based
# [18] = system: Brain; assay: Drug level in Wistar Han rat brain at 1 mg/kg, iv measured 1 hr post compound administration; assay type: ADME, organism-based; details: in vivo, 1 h, BLD = below limit of detection
# [19] = Plasma concentration in Wistar Han rat at 1 mg/kg, iv measured 0.25 hrs post compound administration; assay type: ADME, organism-based
# [20] = Ratio of drug level in brain to plasma in Wistar Han rat at 0.3 mg/kg, iv after 1 hr; assay type: ADME, organism-based; details: read-out: BPR
# [21] = system: Rattus norvegicus; assay: Toxicity in Wistar Han rat assessed as induction of lethargy at 0.3 mg/kg, iv measured up to 2 hrs; assay type: organism-based; details: in vivo
# [22] = Ratio of drug level in brain to plasma in Wistar Han rat at 0.3 mg/kg, iv after 0.25 hrs; assay type: ADME, organism-based; details: read-out: BPR
# [23] = Plasma concentration in Wistar Han rat at 0.3 mg/kg, iv measured 1 hr post compound administration; assay type: ADME, organism-based
# [24] = system: Rattus norvegicus; assay: Toxicity in Wistar Han rat assessed as induction of hunched or abnormal posture at 0.3 mg/kg, iv measured up to 2 hrs; assay type: organism-based; details: in vivo
# [25] = Drug level in Wistar Han rat brain at 0.3 mg/kg, iv measured 1 hr post compound administration; assay type: ADME, organism-based; details: read-out: Drug uptake
# [26] = Plasma concentration in Wistar Han rat at 0.3 mg/kg, iv measured 0.25 hrs post compound administration; assay type: ADME, organism-based
# [27] = system: Mus musculus; assay: Antiinflammatory activity in arachidonic acid-induced ear dermatitis ICR mouse model assessed as reduction in ear swelling at 0.3 mg administered twice tropically 30 mins prior and 15 mins after arachidonic acid addition measured 60 mins post arachidonic acid challenge relative to control; assay type: functional
# [28] = system: Mus musculus; assay: Antiinflammatory activity in arachidonic acid-induced ear dermatitis ICR mouse model assessed as reduction in ear swelling at 0.1 mg administered twice tropically 30 mins prior and 15 mins after arachidonic acid addition measured 60 mins post arachidonic acid challenge relative to control; assay type: functional
# [29] = system: Mus musculus; assay: Antiinflammatory activity in arachidonic acid-induced ear dermatitis ICR mouse model assessed as reduction in ear swelling at 3 mg administered twice tropically 30 mins prior and 15 mins after arachidonic acid addition measured 60 mins post arachidonic acid challenge relative to control; assay type: functional
# [30] = system: Mus musculus; assay: (§1) Antiinflammatory activity in tropically administered oxazolone-induced delayed type hypersensitivity BALB/c mouse model assessed as reduction in CD8+ cells per 0.1 mm2 at 2.5 mg administered 3 hrs prior to oxazolone challenge on day 7 to 12 post sensitization followed by re-administration of compound on day 13 to 18 without oxazolone challenge measured on day 19 by DAPI-staining based fluorescence microscopic analysis relative to control; assay type: functional
# [31] = Lipophilicity, logD of the compound at pH 7.4 by LC/MS analysis; assay type: physicochemical; details: buffer
# [32] = system: Mus musculus; assay: as §1, with “CD4+” for “CD8+”; assay type: functional
# [33] = molecular target: Kappa-type opioid receptor (Cavia porcellus, UniProt P41144); assay: Displacement of [3H]U-69,593 from kappa-type opioid receptor in guinea pig brain membranes after 120 mins by solid scintillation counting; assay type: cell membranes, Membrane
# Kappa-type opioid receptor (Cavia porcellus, UniProt P41144), sequence (P41144 whole entry): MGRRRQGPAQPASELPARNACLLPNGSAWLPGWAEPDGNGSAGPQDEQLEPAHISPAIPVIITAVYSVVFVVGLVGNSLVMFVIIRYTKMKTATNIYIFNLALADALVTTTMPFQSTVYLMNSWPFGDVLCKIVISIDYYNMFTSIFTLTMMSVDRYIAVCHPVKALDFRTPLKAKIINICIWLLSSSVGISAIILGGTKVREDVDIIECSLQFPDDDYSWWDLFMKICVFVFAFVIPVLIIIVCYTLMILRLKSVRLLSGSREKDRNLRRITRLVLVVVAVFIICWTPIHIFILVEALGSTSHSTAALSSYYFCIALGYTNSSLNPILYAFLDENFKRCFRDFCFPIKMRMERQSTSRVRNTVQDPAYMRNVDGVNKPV
# [34] = Displacement of [3H]DPDPE from delta-type opioid receptor in guinea pig brain membranes after 120 mins by solid scintillation counting; assay type: cell membranes, Cavia porcellus, Membrane
# [35] = system: Mus musculus; assay: Antiinflammatory activity in arachidonic acid-induced ear dermatitis ICR mouse model assessed as reduction in ear swelling at 1 mg administered twice tropically 30 mins prior and 15 mins after arachidonic acid addition measured 60 mins post arachidonic acid challenge relative to control; assay type: functional
# [36] = molecular target: Kappa-type opioid receptor (Homo sapiens, UniProt P41145); assay: Agonist activity at recombinant human kappa-type opioid receptor expressed in HEK293 cells after 30 mins by [35S]GTPgammaS binding assay; assay type: functional, cell-based
# Kappa-type opioid receptor (Homo sapiens, UniProt P41145), sequence (P41145 whole entry): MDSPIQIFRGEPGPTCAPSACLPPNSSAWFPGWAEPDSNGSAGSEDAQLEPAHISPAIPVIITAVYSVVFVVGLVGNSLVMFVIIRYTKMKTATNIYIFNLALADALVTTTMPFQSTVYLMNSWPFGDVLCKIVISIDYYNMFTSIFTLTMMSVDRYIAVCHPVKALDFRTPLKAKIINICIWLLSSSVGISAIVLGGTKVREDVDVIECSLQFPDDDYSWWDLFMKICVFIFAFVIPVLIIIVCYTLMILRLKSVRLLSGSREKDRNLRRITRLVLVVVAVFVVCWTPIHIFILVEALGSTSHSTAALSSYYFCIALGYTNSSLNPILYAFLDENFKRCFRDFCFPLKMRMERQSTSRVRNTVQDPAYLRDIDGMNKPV
# [37] = molecular target: Mu-type opioid receptor (Cavia porcellus, UniProt P97266); assay: Displacement of [3H]DAMGO from mu-type opioid receptor in guinea pig brain membranes after 120 mins by solid scintillation counting; assay type: cell membranes, Membrane
# Mu-type opioid receptor, sequence (P97266 whole entry): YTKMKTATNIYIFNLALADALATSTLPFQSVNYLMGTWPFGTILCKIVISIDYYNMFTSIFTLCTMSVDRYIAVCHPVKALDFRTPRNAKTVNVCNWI
structure (smiles),measurement,setting,value
COC(=O)N1CCN(C(=O)Cc2ccc(F)c(Cl)c2)[C@@H]2[C@@H](N3CC[C@H](F)C3)CCC[C@@H]21.Cl,Activity,[1],Toxic
same,Activity,[2],Toxic
same,Activity,[3],Toxic
same,Activity,[4],Toxic
same,Activity,[5],Toxic
same,Activity,[6],Toxic
same,concentration at 0.25 h,[7],3070 ng/mL
same,concentration at 1 h,[8],86.6 ng/g
same,Activity,[9],Toxic
same,Activity,[10],Toxic
same,Activity,[11],Toxic
same,Activity,[12],Toxic
same,concentration at 1 h,[13],811 ng/mL
same,Kp at 1 h,[14],0.11
COC(=O)N1CCN(C(=O)Cc2ccc(Cl)c(Cl)c2)[C@@H]2[C@@H](N3CC[C@H](O)C3)CCC[C@@H]21.Cl,Activity,[15],Non-Toxic
same,Activity,[16],Non-Toxic
same,concentration at 1 h,[17],128 ng/mL
same,concentration at 0.25 h,[7],1440 ng/mL
same,Drug uptake,[18],Bld
same,concentration at 1 h,[8],74.1 ng/g
same,concentration at 0.25 h,[19],599 ng/mL
same,concentration at 1 h,[13],669 ng/mL
same,Kp at 1 h,[14],0.11
COC(=O)N1CCN(C(=O)Cc2ccc(Cl)c(Cl)c2)[C@@H]2[C@@H](N3CCCC3)CCC[C@@H]21.Cl,Kp at 1 h,[20],0.65
same,Activity,[21],Toxic
same,Kp at 0.25 h,[22],0.5
same,concentration at 1 h,[23],37.3 ng/mL
same,Activity,[24],Toxic
same,concentration at 1 h,[25],24.2 ng/g
same,concentration at 0.25 h,[26],117 ng/mL
CS(=O)(=O)N1CCN(C(=O)Cc2ccc(Cl)c(Cl)c2)[C@@H]2[C@@H](N3CC[C@H](O)C3)CCC[C@@H]21,inhibition (INH),[27],-4%
same,inhibition (INH),[28],-4%
same,inhibition (INH),[29],56%
same,inhibition (INH),[30],45%
same,logD,[31],2.41
same,inhibition (INH),[32],45%
same,Ki,[33],0.63 nM
same,Ki,[34],367 nM
same,inhibition (INH),[35],32%
same,EC50,[36],1.8 nM
same,Ki,[37],336 nM
